Laboratory results from PubChem BioAssay (NCI).
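Protocol summary: plate cells (96-well), add compound at 5 concentrations, incubate 48 h, interpolate endpoints linearly. The concentration for full growth arrest is given as TGI.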 *1 amine or outer side, *2 acyl side, *3 side chain or, on linkers, in order; H or OH if unused. Where a SMILES comes first, the peptide text is derived from it. [ ]: non-standard residue; d: D form. The star is where a group is joined. X31 = CC(=O)N(C)SCC(N[*:1])C(=O)[*:2]; Cbz = O=C(OCc1ccccc1)*; Bn = c1ccc(C*)cc1

Key:
Test in all cases: growth of human tumour cells (NCI), 48 h
PC-3 prostate = system: PC-3 prostate
HCT-15 colon = system: HCT-15 colon
RXF 393 renal = system: RXF 393 renal
HT29 colon = system: HT29 colon
SW-620 colon = system: SW-620 colon
M14 melanoma = system: M14 melanoma
COLO 205 colon = system: COLO 205 colon
SK-MEL-2 melanoma = system: SK-MEL-2 melanoma
T-47D breast = system: T-47D breast
MDA-N = system: MDA-N
A549 NSCLC = system: A549 NSCLC
CCRF-CEM leukemia = system: CCRF-CEM leukemia
SK-MEL-5 melanoma = system: SK-MEL-5 melanoma
OVCAR-3 ovarian = system: OVCAR-3 ovarian
HS 578T breast = system: HS 578T breast
SR leukemia = system: SR leukemia
SF-295 CNS = system: SF-295 CNS
MALME-3M melanoma = system: MALME-3M melanoma
KM12 colon = system: KM12 colon
UACC-62 melanoma = system: UACC-62 melanoma
SF-268 CNS = system: SF-268 CNS
SN12C renal = system: SN12C renal
TK-10 renal = system: TK-10 renal
MDA-MB-435 = system: MDA-MB-435
ACHN renal = system: ACHN renal
MCF7 breast = system: MCF7 breast
EKVX NSCLC = system: EKVX NSCLC
HCC-2998 colon = system: HCC-2998 colon
NCI-H226 lung = system: NCI-H226 lung
MOLT-4 leukemia = system: MOLT-4 leukemia
NCI-H23 lung = system: NCI-H23 lung
HOP-92 NSCLC = system: HOP-92 NSCLC
BT-549 breast = system: BT-549 breast
OVCAR-8 ovarian = system: OVCAR-8 ovarian
HCT-116 colon = system: HCT-116 colon
NCI/ADR-RES ovarian = system: NCI/ADR-RES ovarian
786-0 renal = system: 786-0 renal
HOP-62 NSCLC = system: HOP-62 NSCLC
HL-60(TB) leukemia = system: HL-60(TB) leukemia
DU-145 prostate = system: DU-145 prostate
UACC-257 melanoma = system: UACC-257 melanoma
RPMI-8226 leukemia = system: RPMI-8226 leukemia
MDA-MB-231 breast = system: MDA-MB-231 breast
SK-OV-3 ovarian = system: SK-OV-3 ovarian
K-562 leukemia = system: K-562 leukemia
NCI-H460 lung = system: NCI-H460 lung
SF-539 CNS = system: SF-539 CNS
IGROV1 ovarian = system: IGROV1 ovarian
SK-MEL-28 melanoma = system: SK-MEL-28 melanoma
SNB-75 CNS = system: SNB-75 CNS
LOX IMVI melanoma = system: LOX IMVI melanoma
OVCAR-4 ovarian = system: OVCAR-4 ovarian
U251 CNS = system: U251 CNS
UO-31 renal = system: UO-31 renal
OVCAR-5 ovarian = system: OVCAR-5 ovarian
SNB-19 CNS = system: SNB-19 CNS
CAKI-1 renal = system: CAKI-1 renal
A498 renal = system: A498 renal
NCI-H522 lung = system: NCI-H522 lung

Measured: TGI

CC(=O)N(C)SCC(NC(=O)C(Cc1ccccc1)NC(=O)OCc1ccccc1)C(=O)NC(Cc1ccccc1)C(=O)NC(Cc1c[nH]c2ccccc12)C(=O)NC(CCCCNC(=O)OCc1ccccc1)C(=O)NC(C(=O)NC(CSN(C)C(C)=O)C(=O)NC(C(N)=O)C(C)OCc1ccccc1)C(C)OCc1ccccc1 (stereo unspecified) (Cbz-F[X31]FWK(Cbz)T(Bn)[X31]T(Bn)-NH2; configuration not given here)
not listed: CAKI-1 renal | A498 renal | NCI-H522 lung
> 100 µM: all other assays above

FC(F)(Sc1ncc[nH]1)c1nc2ccccc2o1
not listed: EKVX NSCLC | HL-60(TB) leukemia | LOX IMVI melanoma | SNB-19 CNS
> 100 µM: all other assays above
